Assay results published in patent US9597297B2, “Combination of pilocarpin and methimazol for treating Charcot-Marietooth disease and related disorders” (PHARNEXT, priority 2008, dated 2017).

What was measured:
PMP22 mRNA = PMP22 mRNA expression in primary rat Schwann cells after 24 hrs drug incubation; type: cell-based
Description: Vials of rat Schwann cells (SC) primary culture (Sciencell # R1700) are defrosted and seeded at the density of 10,000 cells/cm2 in “Sciencell Schwann cell medium” (basal medium from Sciencell # R1701) in poly-L-lysine pre-coated 75 cm^2 flasks. The culture medium is composed of basal medium, 5% Fetal Bovine Serum (3H-Biomedical AB #1701-0025), 1% Schwann cell growth supplement (3H Biomedical AB #1701-1752), 1% Gentamicin (Sigma #G1397) and 10 μM of Forskolin (Sigma # F6886) to promote their proliferation.
After reaching confluency (4 to 10 days depending on cell batch), Schwann cells are purified by gentle agitation or by thy1.1 immunopanning that allow SC isolation from adherent fibroblasts, to produce cultures that are at least 95% pure. SC are then counted (Tryptan blue method) and seeded in poly-L-lysine pre-coated 75 cm^2 flask in the same SC medium. At confluency, cells are rinsed, trypsinized (trypsin-EDTA 1× diluted from Invitrogen #1540054), diluted in PBS without calcium and magnesium) counted and platted in 12 well-dishes (140 000 cells/well) in Sciencell Schwann cell medium with 5% of FBS, 1% of cell growth supplement (CGS), 40 μg/ml of gentamicin and 4 μM Forskolin.
Primary Schwann cell cultures (SC) are established from Sprague-Dawley newborn rats (between P0 and P2) sciatic nerves. All newborn rats are sacrificed and isolated in a Petri dish. Dissection is performed under sterile conditions.
The dorsal skin is removed from the hind paw and the lower torso. The sciatic nerve is isolated and transferred to a culture dish containing ice-cold Leibovitz (L15, Invitogen #11415) supplemented with 1% penicillin/streptomycin solution (50 UI/ml and 50 μg/ml, respectively; Invitrogen #15070) and 1% of bovine serum albumin (BSA, Sigma A6003). Both nerves per rats are transferred in a 15 ml tube containing ice-cold L15. The L15 medium is then removed and replaced by 2.4 ml of DMEM (Invitrogen #21969035) with 10 mg/ml of collagenase ([…]). Nerves are incubated in this medium for 30 minutes at 37° C. The medium is then removed and both nerves are dissociated by trypsin (10% trypsin EDTA 10×, Invitrogen #15400054) diluted in PBS without calcium and magnesium (Invitrogen #2007-03) for 20 min at 37° C. […] Cells are counted (Tryptan blue method) and seeded in Falcon 100 mm Primaria tissue culture plates at the density of 5·10^5 to 10^6 cells/dish. […]
After 8 days of culture (4 to 10 days depending on cell batches), Schwann cells reach confluency and the culture, containing a large amount of contaminating fibroblasts, is purified by the thy1.1 immunopanning method. […] Once they reach confluency, cells are rinsed, trypsinized (trypsin-EDTA), counted and platted in 12 well-dishes (100 000 cells/well). […]

[1] = tested on: CMT transgenic rat model (PMP22 transgenic rats); experiment: Post-mortem weighing of sciatic nerves and soleus muscles in CMT rats; type: in vivo; details: CMT female rats treated 20 weeks
From the text: FIG. 5: The analysis of the post-mortem samples obtained from the animals treated with drugs as described in the legend to FIG. 3. The rats treated with drugs and placebo during 20 weeks, were deeply anesthetized and the entire sciatic nerves and soleus muscles were carefully sampled and weighted. The graphs present the 30 mean values of these measurements.
Sciatic nerves are excised and used for weighting as well as for molecular biology and/or biochemical essays. (RT-Q-PCR for PMP22 mRNA and Western blots for myelin proteins quantifications; Cayman's EIA kits—for biochemical markers such as arachidonic acid metabolites, HPLC quantification for steroids and amines, ELISA for CNTF, IL-6 etc.) performed according to generally used protocols and for analytical procedures (drug concentrations measures).
The hind limbs muscles (soleus) are sampled, weighted, snap-frozen and preserved at −80° C. until analysis (the same as for sciatic nerves).

## Cn1cc[nH]c1=S [methimazole, 1-methyl-3H-imidazole-2-thione]
PMP22 mRNA; primary Schwann cells
  dose inducing the most important PMP22 mRNA down-regulation: lower dose
PMP22 mRNA; primary rat Schwann cells, 1 mM or 1 μM of compound A
  PMP22 mRNA level: significantly decreased
[1]
  mass of sciatic nerves and soleus muscles: completely corrected

## CC[C@@H]1C(=O)OC[C@@H]1Cc1cncn1C [pilocarpine, (3S,4R)-3-ethyl-4-[(3-methylimidazol-4-yl)methyl]oxolan-2-one]
PMP22 mRNA; primary Schwann cells
  dose inducing the most important PMP22 mRNA down-regulation: 1 µM
PMP22 mRNA; primary Schwann cells, low doses 10 nM and 50 nM
  PMP22 mRNA level of expression: significantly down-regulated
[1]
  mass of sciatic nerves and soleus muscles: smaller than that of methimazole
